Data on 15 molecules can be found in PubChem BioAssay (NCI).

Molecules are shown by their SMILES.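 Where inhibition never reached the appropriate level, the endpoint shown equals the highest concentration tested. Otherwise, values were interpolated linearly from a five-concentration, 48-hour dose response in 96-well plates. The concentration for full growth arrest is given as TGI.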 Bounds are passed on as bounds.

Holding throughout (assay): NCI-60 cell line screen, 48 h
In test [1] the test system is A549 NSCLC.
The subject of test [2] is ACHN renal.
Test [3] deals with HCT-116 colon.
The subject of test [4] is HT29 colon.
Test [5] has as its system SN12C renal.
For test [6], the system named is SNB-19 CNS.
Test [7] deals with UO-31 renal.
The subject of test [8] is KM12 colon.
In test [9] the test system is MDA-MB-231 breast.
For test [10], the system named is TK-10 renal.

As to `Cc1occ2c1C(=O)CC1C2[C@@H](O)CC2C(C)(C)CCC[C@]12C` (stereo not given in full), the TGI in test [1], in test [2], in test [3], in test [4], in test [5] and in [6] was more than 100 µM throughout. The molecule further returned a TGI in test [7] of more than 100 µM.

`COc1cc(C(c2cccc3ccccc23)N2C(=O)CCC2C(=O)NCc2ccccc2)cc(OC)c1OC` (stereo not given): the TGI in test [1], in [3], in test [4], in test [8], in test [9] and in test [5] was more than 100 µM throughout. The TGI in [6] and in test [7] was more than 100 µM in each case.

Consider `CCOP(=O)(OCC)C1(O)CC(n2cc(C)c(=O)[nH]c2=O)OC1CO` (stereo not given), for which the TGI in test [1], in test [2], in test [3], in test [4], in test [8] and in test [5] was more than 100 µM each time. Also, the TGI in [6], in test [10] and in test [7] was more than 100 µM throughout.

Consider `C#CCSc1nc(N)c2ncn(C3OC(COP(=O)(O)O)C(O)C3O)c2n1` (stereo not given), for which the TGI in test [1], in test [2], in test [3], in [4], in [8] and in test [5] was more than 239 µM in each case. Besides, the TGI in test [6], in [10] and in [7] was more than 239 µM each time.

Regarding `COC(=O)C1=C(C)N(NC(=O)c2ccccc2)C2(O)CCCC(=O)C12C` (stereo not given), the TGI in test [1], in test [2], in [3], in [4], in [8] and in test [5] was more than 100 µM throughout. The TGI in [6], in test [10] and in [7] was more than 100 µM each time.

On to `Cc1ccc(S(=O)(=O)c2ccc([N+](=O)[O-])o2)cc1`, for which the TGI was 28.1 µM in test [1]; 3.03 µM in [2]; 3.94 µM in test [3]; 3.2 µM in test [4]; 4.78 µM in test [9]; 35.5 µM in [5]. Further, the TGI in test [6] was determined as 40.4 µM; in test [10] it was 3.04 µM; in test [7] it was 2.78 µM.

Turning to `CN1Cc2c(nc(-c3ccc(Br)cc3)c[n+]2[O-])N(C)C1`, the TGI in test [1], in test [2], in [3], in test [4], in test [8] and in [5] was more than 100 µM in each case. Further, the TGI in test [6] and in test [7] was more than 100 µM in each case.

In the case of `CC(C)(C)OC(=O)NCC(=O)NC1C/C(=N\O)c2sccc21` (stereo not given), the TGI in test [1], in [3], in test [4], in [9], in [5] and in [6] was more than 100 µM each time. Also, the TGI in test [10] and in test [7] was more than 100 µM in each case.

For `Cc1nn(C(=O)c2ccncc2)c2c1C(c1cccc([N+](=O)[O-])c1)SC(N)=N2` (stereo not given), the TGI in [1], in test [2], in test [3], in test [4], in test [8] and in test [9] was more than 10 µM throughout. Besides, the TGI in test [5], in test [6] and in test [10] was more than 10 µM each time.

On to `Cc1cc(C)c2c(=N)c3ccccc3n(CCCCCCO)c2n1`, for which the TGI in test [1] worked out at 17.7 µM; in [2], 6.81 µM; in test [4] it was 3.93 µM; in test [8], 13.5 µM; in [9], 15.1 µM; in test [5], 7.55 µM. The TGI is 18.9 µM in test [6], 17.9 µM in [10] and 6.01 µM in test [7].

Regarding `CC(=O)c1ccc(N2CCN(C3=CC(=O)c4c(O)ccc(O)c4C3=O)CC2)cc1`, the TGI in [1] was more than 100 µM; in [3], more than 100 µM; in [4] it was more than 100 µM; in [8], more than 100 µM; in test [9] it was 94.8 µM; in test [6] it was more than 100 µM. The figures for the TGI in [10] and in test [7] were more than 100 µM and 35.5 µM, respectively.

As for `CC(=O)O[C@H]1CN(S(=O)(=O)c2ccc(C)cc2)C[C@@H]1C1CCCCC1`, the TGI in test [2] was more than 100 µM; in test [4], 84.7 µM; in [8] it was 36.3 µM; in test [9] it was 82.7 µM; in [6], more than 100 µM; in test [10], 72.2 µM. Also, in test [7], the TGI is more than 100 µM.

As to `Oc1ccc(Cl)cc1C1=N/C(=N\C/N=C2\N=C(c3cc(Cl)ccc3O)CC(c3ccccc3)N2)NC(c2ccccc2)C1` (stereo not given), the TGI in [1], in test [2], in [3], in [4], in test [8] and in [9] was more than 100 µM throughout. Also, the TGI in test [6], in test [10] and in test [7] was more than 100 µM in each case.

Take `CC1=C[C@@H](C)C[C@]2(C)CC[C@H](O2)[C@]23CC[C@](C)(C[C@H](O2)[C@@H]2O[C@@](C)(CC2=O)[C@@H](O)[C@H]2CC[C@@]4(CCC[C@@H](O4)[C@H](C)C(=O)O[C@H]4C[C@H]([C@]5(O)OCC[C@H](C)[C@@H]5O)O[C@H]4C=C1)O2)O3`: the TGI in test [1] was more than 10 µM; in [2] it was more than 5.25 µM; in test [4] it was more than 10 µM; in [8] it was more than 10 µM; in test [9], 0.238 µM; in test [10], 0.0277 µM. In test [7], this molecule had a TGI of 0.0231 µM.

As for `Cc1nn(C)c2nc3ccc(Cl)cc3c(-c3ccccc3)c12`, the TGI in test [1], in test [2], in [3], in test [4], in [8] and in [9] was more than 100 µM each time. Further, the TGI in [5], in test [6] and in [7] was more than 100 µM in each case.
